Test results as given in patent publication US8604217B2, “Compound, a process for its preparation, a pharmaceutical composition, use of a compound, a method for modulating or regulating serine/threonine kinases and a serine/threonine kinases modulating agent” (Selvita S.A., priority 2009, dated 2013).

Columns and labels:
Experiment in all cases: KinaseProfiler kinase panel
GRK6(h) = GRK6(h) (Homo sapiens (Human), UniProt P43250); format: biochemical
MST2(h) = MST2(h) (Homo sapiens (Human), UniProt Q13188); format: biochemical
CK1γ2(h) = CK1γ2(h) (Homo sapiens (Human), UniProt P78368); format: biochemical
IR(h), activated = IR(h), activated (Homo sapiens (Human), UniProt P06213); format: biochemical
eEF-2K(h) = eEF-2K(h) (Homo sapiens (Human), UniProt O00418); format: biochemical
PKCα(h) = PKCα(h) (Homo sapiens (Human), UniProt P17252); format: biochemical
Txk(h) = Txk(h) (Homo sapiens (Human), UniProt P42681); format: biochemical
Met(D1246H)(h) = Met(D1246H)(h) (Homo sapiens (Human), UniProt P08581, D1246H); format: biochemical
SAPK2b(h) = SAPK2b(h) (Homo sapiens (Human), UniProt Q15759); format: biochemical
Blk(m) = Blk(m) (Mus musculus (Mouse), UniProt P16277); format: biochemical
TSSK2(h) = TSSK2(h) (Homo sapiens (Human), UniProt Q96PF2); format: biochemical
CLK3(h) = CLK3(h) (Homo sapiens (Human), UniProt P49761); format: biochemical
CDK7/cyclinH/MAT1(h) = CDK7/cyclinH/MAT1(h) (Homo sapiens (Human), UniProt P50613); format: biochemical
ACK1(h) = ACK1(h) (Homo sapiens (Human), UniProt Q07912); format: biochemical
TLK2(h) = TLK2(h) (Homo sapiens (Human), UniProt Q86UE8); format: biochemical
cSRC(h) = cSRC(h) (Homo sapiens (Human), UniProt P12931); format: biochemical
PDK1(h) = PDK1(h) (Homo sapiens (Human), UniProt O15530); format: biochemical
PDGFRα(V561D)(h) = PDGFRα(V561D)(h) (Homo sapiens (Human), UniProt P16234, V561D); format: biochemical
Rsk1(h) = Rsk1(h) (Homo sapiens (Human), UniProt Q15418); format: biochemical
LIMK1(h) = LIMK1(h) (Homo sapiens (Human), UniProt P53667); format: biochemical
ULK2(h) = ULK2(h) (Homo sapiens (Human), UniProt Q8IYT8); format: biochemical
mTOR(h) = mTOR(h) (Homo sapiens (Human), UniProt P42345); format: biochemical
MARK1(h) = MARK1(h) (Homo sapiens (Human), UniProt Q9P0L2); format: biochemical
MELK(h) = MELK(h) (Homo sapiens (Human), UniProt Q14680); format: biochemical
Abl(T315I)(h) = Abl(T315I)(h) (Homo sapiens (Human), UniProt P00519, T315I); format: biochemical
CHK2(I157T)(h) = CHK2(I157T)(h) (Homo sapiens (Human), UniProt O96017, I157T); format: biochemical
CK1(y) = format: biochemical, yeast; details: 1 μM
PIM-3(h) = PIM-3(h) (Homo sapiens (Human), UniProt Q86V86); format: biochemical
PKCδ(h) = PKCδ(h) (Homo sapiens (Human), UniProt Q05655); format: biochemical
Bmx(h) = Bmx(h) (Homo sapiens (Human), UniProt P51813); format: biochemical
PKCζ(h) = PKCζ(h) (Homo sapiens (Human), UniProt Q05513); format: biochemical
PIM-1(h) = PIM-1(h) (Homo sapiens (Human), UniProt P11309); format: biochemical
Fer(h) = Fer(h) (Homo sapiens (Human), UniProt P16591); format: biochemical
SGK2(h) = SGK2(h) (Homo sapiens (Human), UniProt Q9HBY8); format: biochemical
Met(Y1248D)(h) = Met(Y1248D)(h) (Homo sapiens (Human), UniProt P08581, Y1248D); format: biochemical
CaMKIIδ(h) = CaMKIIδ(h) (Homo sapiens (Human), UniProt Q13557); format: biochemical
PAK4(h) = PAK4(h) (Homo sapiens (Human), UniProt O96013); format: biochemical
Plk3(h) = Plk3(h) (Homo sapiens (Human), UniProt Q9H4B4); format: biochemical
TRKB(h) = TRKB(h) (Homo sapiens (Human), UniProt Q16620); format: biochemical
MRCKα(h) = MRCKα(h) (Homo sapiens (Human), UniProt Q5VT25); format: biochemical

Sequence of Plk3(h) (Q9H4B4 whole entry): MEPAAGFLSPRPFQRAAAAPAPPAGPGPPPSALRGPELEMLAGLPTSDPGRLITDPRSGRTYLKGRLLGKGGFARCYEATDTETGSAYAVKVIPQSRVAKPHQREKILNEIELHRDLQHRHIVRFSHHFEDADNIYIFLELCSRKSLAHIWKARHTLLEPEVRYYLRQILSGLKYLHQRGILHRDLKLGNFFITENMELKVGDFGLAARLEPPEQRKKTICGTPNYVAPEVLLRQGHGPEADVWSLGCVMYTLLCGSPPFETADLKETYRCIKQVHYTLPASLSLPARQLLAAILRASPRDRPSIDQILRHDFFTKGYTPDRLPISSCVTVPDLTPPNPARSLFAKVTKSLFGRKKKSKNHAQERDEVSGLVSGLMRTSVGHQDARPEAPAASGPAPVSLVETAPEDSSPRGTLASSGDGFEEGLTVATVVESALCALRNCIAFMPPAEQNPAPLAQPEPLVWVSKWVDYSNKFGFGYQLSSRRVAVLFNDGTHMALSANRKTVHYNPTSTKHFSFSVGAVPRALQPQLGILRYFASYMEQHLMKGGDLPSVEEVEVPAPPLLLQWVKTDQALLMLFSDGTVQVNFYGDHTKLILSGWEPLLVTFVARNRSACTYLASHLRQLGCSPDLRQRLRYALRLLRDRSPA
Sequence of SAPK2b(h) (Q15759 whole entry): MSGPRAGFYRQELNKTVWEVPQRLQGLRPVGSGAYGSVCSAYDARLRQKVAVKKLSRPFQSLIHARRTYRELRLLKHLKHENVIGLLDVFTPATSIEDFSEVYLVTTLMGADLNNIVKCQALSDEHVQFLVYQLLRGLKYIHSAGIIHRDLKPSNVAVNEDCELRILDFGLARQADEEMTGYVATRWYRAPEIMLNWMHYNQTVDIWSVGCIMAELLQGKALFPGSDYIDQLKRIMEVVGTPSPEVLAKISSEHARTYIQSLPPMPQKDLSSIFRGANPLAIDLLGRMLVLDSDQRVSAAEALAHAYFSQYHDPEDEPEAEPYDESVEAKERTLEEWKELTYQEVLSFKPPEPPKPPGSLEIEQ
Sequence of PKCζ(h) (Q05513 whole entry): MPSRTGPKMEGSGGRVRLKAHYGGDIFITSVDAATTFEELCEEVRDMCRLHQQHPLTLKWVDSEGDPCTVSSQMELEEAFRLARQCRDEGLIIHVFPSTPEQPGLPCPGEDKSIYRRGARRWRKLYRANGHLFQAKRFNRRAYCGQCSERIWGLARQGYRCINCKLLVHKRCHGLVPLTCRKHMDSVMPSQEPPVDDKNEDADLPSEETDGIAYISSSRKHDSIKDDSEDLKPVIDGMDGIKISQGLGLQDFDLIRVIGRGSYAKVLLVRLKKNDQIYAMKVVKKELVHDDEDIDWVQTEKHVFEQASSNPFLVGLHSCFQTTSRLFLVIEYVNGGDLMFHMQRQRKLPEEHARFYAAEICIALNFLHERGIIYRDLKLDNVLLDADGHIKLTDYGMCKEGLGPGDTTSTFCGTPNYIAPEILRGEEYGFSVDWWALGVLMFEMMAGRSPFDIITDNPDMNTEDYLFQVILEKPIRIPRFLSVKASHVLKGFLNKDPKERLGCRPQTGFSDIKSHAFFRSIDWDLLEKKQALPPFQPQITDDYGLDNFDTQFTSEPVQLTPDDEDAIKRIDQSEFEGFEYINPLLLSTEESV
Sequence of LIMK1(h) (P53667 whole entry): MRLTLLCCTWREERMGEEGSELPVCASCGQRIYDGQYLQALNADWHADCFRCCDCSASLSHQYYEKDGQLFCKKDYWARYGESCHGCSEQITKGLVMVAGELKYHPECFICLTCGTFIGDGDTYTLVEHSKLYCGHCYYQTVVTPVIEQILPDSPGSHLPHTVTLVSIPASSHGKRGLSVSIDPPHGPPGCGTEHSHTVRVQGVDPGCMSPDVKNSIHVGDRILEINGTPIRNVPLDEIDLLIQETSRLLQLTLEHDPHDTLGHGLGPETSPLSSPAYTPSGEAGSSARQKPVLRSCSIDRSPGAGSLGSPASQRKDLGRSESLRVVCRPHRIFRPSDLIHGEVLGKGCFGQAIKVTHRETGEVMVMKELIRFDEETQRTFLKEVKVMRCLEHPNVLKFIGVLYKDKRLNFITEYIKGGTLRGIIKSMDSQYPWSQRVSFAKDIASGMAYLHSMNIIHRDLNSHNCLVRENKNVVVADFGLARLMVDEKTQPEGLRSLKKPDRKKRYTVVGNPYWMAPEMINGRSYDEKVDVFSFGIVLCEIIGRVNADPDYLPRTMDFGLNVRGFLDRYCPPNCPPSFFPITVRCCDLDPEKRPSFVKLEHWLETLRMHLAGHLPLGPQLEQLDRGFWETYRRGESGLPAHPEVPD
Sequence of CHK2(I157T)(h) (O96017 whole entry I157T): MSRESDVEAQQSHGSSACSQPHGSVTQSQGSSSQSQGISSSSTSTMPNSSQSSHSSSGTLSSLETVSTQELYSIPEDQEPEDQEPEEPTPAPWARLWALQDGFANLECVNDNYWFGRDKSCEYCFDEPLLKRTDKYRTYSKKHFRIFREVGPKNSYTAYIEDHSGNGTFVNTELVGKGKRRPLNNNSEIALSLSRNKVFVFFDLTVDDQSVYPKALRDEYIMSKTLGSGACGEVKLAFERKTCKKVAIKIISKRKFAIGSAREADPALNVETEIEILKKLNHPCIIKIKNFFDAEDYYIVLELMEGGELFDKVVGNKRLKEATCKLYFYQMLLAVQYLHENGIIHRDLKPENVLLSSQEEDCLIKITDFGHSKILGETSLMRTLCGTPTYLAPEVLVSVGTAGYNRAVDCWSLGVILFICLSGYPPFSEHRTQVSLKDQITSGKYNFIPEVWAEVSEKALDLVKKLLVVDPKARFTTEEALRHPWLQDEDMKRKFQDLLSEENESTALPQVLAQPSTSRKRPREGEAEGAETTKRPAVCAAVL
Sequence of MST2(h) (Q13188 whole entry): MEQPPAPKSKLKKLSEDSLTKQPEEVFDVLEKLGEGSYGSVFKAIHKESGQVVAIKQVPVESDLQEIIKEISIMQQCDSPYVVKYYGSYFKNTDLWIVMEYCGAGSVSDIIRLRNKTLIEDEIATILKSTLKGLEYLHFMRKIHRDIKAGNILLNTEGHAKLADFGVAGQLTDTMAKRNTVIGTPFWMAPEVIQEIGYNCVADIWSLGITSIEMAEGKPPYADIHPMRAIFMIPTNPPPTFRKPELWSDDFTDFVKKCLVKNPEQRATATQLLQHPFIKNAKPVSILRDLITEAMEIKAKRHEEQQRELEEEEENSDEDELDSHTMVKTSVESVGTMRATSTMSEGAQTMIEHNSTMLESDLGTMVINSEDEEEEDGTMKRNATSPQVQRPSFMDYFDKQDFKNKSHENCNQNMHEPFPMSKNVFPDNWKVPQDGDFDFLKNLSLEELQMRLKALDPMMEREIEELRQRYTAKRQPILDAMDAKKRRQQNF
Sequence of Blk(m) (P16277 whole entry): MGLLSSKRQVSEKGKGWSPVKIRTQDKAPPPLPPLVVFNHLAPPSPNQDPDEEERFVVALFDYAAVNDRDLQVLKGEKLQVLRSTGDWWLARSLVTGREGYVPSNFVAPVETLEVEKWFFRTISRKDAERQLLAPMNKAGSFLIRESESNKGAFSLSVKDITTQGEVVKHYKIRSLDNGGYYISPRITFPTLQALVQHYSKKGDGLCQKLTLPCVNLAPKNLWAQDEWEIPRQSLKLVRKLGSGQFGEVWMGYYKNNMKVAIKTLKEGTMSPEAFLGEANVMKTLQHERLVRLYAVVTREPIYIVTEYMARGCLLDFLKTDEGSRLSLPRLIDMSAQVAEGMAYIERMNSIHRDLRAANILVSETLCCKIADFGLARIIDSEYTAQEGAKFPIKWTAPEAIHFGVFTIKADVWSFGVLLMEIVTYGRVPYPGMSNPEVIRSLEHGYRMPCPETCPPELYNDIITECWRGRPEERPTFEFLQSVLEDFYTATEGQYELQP
Sequence of CK1γ2(h) (P78368 whole entry): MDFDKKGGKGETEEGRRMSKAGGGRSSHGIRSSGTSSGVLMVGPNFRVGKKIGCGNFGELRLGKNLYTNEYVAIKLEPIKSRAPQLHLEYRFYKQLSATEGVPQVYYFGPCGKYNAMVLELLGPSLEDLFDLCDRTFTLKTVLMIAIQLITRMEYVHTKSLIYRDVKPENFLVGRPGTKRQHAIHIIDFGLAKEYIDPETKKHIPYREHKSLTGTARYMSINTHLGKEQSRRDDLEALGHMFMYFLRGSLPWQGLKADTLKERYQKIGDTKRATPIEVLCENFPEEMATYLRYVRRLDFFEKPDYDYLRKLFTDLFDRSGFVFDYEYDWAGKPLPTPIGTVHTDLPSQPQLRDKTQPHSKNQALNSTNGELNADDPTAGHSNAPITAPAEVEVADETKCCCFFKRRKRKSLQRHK

CCn1c(N2CCNCC2)nc2c(Br)c(Br)c(Br)c(Br)c21 [Compound 416, 4,5,6,7-tetrabromo-1-ethyl-2-(piperazin-1-yl)-1H-benzo[d]imidazole]
remaining activity at 1 µM (GRK6(h)): 91% | remaining activity at 1 µM (MST2(h)): 93% | remaining activity at 1 µM (CK1γ2(h)): 85% | remaining activity at 1 µM (IR(h), activated): 93% | remaining activity at 1 µM (eEF-2K(h)): 107% | remaining activity at 1 µM (PKCα(h)): 95% | remaining activity at 1 µM (Txk(h)): 99% | remaining activity at 1 µM (Met(D1246H)(h)): 72% | remaining activity at 1 µM (SAPK2b(h)): 91% | remaining activity at 1 µM (Blk(m)): 97% | remaining activity at 1 µM (TSSK2(h)): 95% | remaining activity at 1 µM (CLK3(h)): 82% | remaining activity at 1 µM (CDK7/cyclinH/MAT1(h)): 25% | remaining activity at 1 µM (ACK1(h)): 97% | remaining activity at 1 µM (TLK2(h)): 104% | remaining activity at 1 µM (cSRC(h)): 79% | remaining activity at 1 µM (PDK1(h)): 109% | remaining activity at 1 µM (PDGFRα(V561D)(h)): 68% | remaining activity at 1 µM (Rsk1(h)): 56% | remaining activity at 1 µM (LIMK1(h)): 98% | remaining activity at 1 µM (ULK2(h)): 88% | remaining activity at 1 µM (mTOR(h)): 95% | remaining activity at 1 µM (MARK1(h)): 91% | remaining activity at 1 µM (MELK(h)): 86% | remaining activity at 1 µM (Abl(T315I)(h)): 92% | remaining activity at 1 µM (CHK2(I157T)(h)): 80% | % remaining activity (CK1(y)): 6% | remaining activity at 1 µM (PIM-3(h)): 34% | remaining activity at 1 µM (PKCδ(h)): 89% | remaining activity at 1 µM (Bmx(h)): 94% | remaining activity at 1 µM (PKCζ(h)): 107% | remaining activity at 1 µM (PIM-1(h)): 1% | remaining activity at 1 µM (Fer(h)): 100% | remaining activity at 1 µM (SGK2(h)): 79% | remaining activity at 1 µM (Met(Y1248D)(h)): 81% | remaining activity at 1 µM (CaMKIIδ(h)): 28% | remaining activity at 1 µM (PAK4(h)): 79% | remaining activity at 1 µM (Plk3(h)): 101% | remaining activity at 1 µM (TRKB(h)): 37% | remaining activity at 1 µM (MRCKα(h)): 96%
